Source: patent publication US20230116972A1, “CD38 MODULATORS AND METHODS OF USE THEREOF” (Cytokinetics, Inc., priority 2021, published 2023)

What was measured:
human CD38 = target: T1, human CD38 (Homo sapiens, UniProt P28907); experiment: human recombinant CD38 enzyme assay (hydrolysis of NAD+); assay type: biochemical; conditions: human recombinant CD38, 0.4 nM enzyme, 62.5 μM NAD+; read-out: hCD38 BioChem IC50
T1 sequence (P28907 1-300): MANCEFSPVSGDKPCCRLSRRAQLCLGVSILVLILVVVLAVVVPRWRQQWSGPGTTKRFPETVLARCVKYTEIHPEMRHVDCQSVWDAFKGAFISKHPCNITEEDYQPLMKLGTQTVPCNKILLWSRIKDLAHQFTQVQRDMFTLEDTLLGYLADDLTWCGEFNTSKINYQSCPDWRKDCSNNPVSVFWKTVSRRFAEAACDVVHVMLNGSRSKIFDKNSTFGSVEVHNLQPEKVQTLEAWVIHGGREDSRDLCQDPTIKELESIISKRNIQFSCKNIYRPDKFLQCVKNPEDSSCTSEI
Outline: (§1)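 Cell-free recombinant enzyme, NAD+ substrate, 60 min at RT. Stop/detect: ethanol/ADH plus semicarbazide and a CD38 inhibitor (15 min), then NaOH, then resazurin/diaphorase (15 min). Remaining NAD+ read as resorufin fluorescence, Ex/Em 540/590 nm. Inhibition fitted from dose responses.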

mouse CD38 = target: T2, mouse CD38 (Mus musculus, UniProt P56528); experiment: mouse recombinant CD38 enzyme assay (hydrolysis of NAD+); assay type: biochemical; conditions: read-out: mCD38 BioChem IC50
T2 sequence (P56528 1-304): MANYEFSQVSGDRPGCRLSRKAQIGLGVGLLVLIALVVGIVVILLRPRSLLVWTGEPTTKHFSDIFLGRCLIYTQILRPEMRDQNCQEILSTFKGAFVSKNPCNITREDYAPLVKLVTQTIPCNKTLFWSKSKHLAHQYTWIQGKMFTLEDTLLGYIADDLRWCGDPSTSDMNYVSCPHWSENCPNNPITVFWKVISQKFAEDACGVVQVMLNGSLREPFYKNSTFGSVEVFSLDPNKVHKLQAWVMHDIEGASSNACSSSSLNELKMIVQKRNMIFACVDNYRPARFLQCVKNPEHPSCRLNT
Outline: as §1

[1] = tested on: nicotinamide levels in mouse tissues; experiment: tissue levels of nicotinamide in aged C57BL/6 mice after oral administration; assay type: in vivo; conditions: 100 mg/kg BID oral, 72-week-old male C57BL/6J mice, 4 h after the 3rd administration, vs vehicle, FIG. 1
Protocol: 0.1% Tween 80/0.5% HPMC or compound 148 prepared with 0.1% Tween 80/0.5% HPMC was orally administered at 100 mg/kg BID to 72-week-old male C57BL/6J mice. 4 h after the 3rd administration, each mouse was euthanized, and tissues collected.
Whole blood was collected and placed into pre-chilled K2EDTA microtainer tube, rotated 3-4 times to ensure anticoagulant mixing. An aliquot from the whole blood collection was added to 10 volumes of 0.5M PCA (perchloric acid), inverted 3-4 times to mix well, and then frozen on dry ice. While under isoflurane after cardiac puncture for blood collection, the following tissues were harvested in this order: heart, liver lobe, then by brain. All tissues were processed using pre-chilled freeze clamp. The frozen tissues were placed in pre-frozen labeled 2 mL Eppendorf tubes. The tissues were stored at −80° C. until processing. Upon processing, each tissue was cryomilled in the frozen state to form a powder. Frozen powdered tissue was weighed into pre-frozen tubes. Approximately 10 volumes of 0.5M PCA per weight of tissue were added to the tube followed by freezing until analysis. Upon analysis, blood and tissue samples were thawed on ice, followed by homogenization via TissueLyzer. Samples were centrifuged, the supernatant was collected and filtered, and the nicotinamide concentration in the supernatant of sample was measured using LC/MS.

[2] = tested on: human hepatic cytochrome P450 isozymes (CYP1A2, 2B6, 2C8, 2C9, 2C19, 2D6, and 3A4); experiment: time dependent inhibition, statement over all isozymes tested; assay type: in vitro ADME; conditions: any isozymes; pooled human microsomes; no indication of time dependent inhibition
Protocol: Time dependent inhibition: An assessment of the time-dependent Inhibitory potential of test compounds against the principal human cytochrome P450 isozymes was carried out using standard methods (Grimm et al, “The Conduct of in Vitro Studies to Address Time-Dependent Inhibition of Drug-Metabolizing Enzymes: A Perspective of the Pharmaceutical Research and Manufacturers of America”, Drug Metabolism and Disposition, 37 (7): 1355, 2009). […] Each compound was pre-incubated at 37° C. plus and minus NADPH for 30 min, and with 0 min pre-incubation for assessment of potential time dependent inhibition. LC-MS/MS was used to quantify metabolite formation. […] Note that, in Tables 8 and 9, the “Compound No” corresponds to the compound numbers in Table 1.

CYP2D6 = target: T3, CYP2D6 (Homo sapiens, UniProt P10635); experiment: direct inhibition of CYP450 in human liver microsomes; assay type: in vitro ADME; conditions: for activity at 3 µM / activity at 10 µM / activity at 50 µM: % of non-inhibited control, read-out: CYP2D6 T0 % activity; for IC50: estimated from 3, 10, 50 uM, read-out: CYP2D6 T0 estimated IC50
T3 construct: from tissue; host or cells: human liver microsomes (pooled in the time-dependent assay)
T3 sequence (P10635 whole entry): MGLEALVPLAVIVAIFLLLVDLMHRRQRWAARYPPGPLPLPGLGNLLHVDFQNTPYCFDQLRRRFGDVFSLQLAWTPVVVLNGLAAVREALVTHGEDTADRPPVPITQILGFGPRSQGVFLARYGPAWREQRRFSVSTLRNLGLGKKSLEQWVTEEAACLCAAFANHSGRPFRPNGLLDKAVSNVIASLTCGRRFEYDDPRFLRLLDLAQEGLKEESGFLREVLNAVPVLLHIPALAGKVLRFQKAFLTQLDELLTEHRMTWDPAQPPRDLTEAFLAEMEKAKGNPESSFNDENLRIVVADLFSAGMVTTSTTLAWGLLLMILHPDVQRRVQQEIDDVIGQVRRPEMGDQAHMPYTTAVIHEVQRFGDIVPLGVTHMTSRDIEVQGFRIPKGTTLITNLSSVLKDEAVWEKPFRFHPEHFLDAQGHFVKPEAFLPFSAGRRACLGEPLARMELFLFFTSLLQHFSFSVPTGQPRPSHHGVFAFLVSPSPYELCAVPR

SMILES	IC50 (human CD38) [nM]	IC50 (mouse CD38) [nM]	IC50 fold shift between 30 min pre-incubation plus NADPH and 0 min preincubation [2] [fold]	activity at 3 µM (CYP2D6) [%]	activity at 10 µM (CYP2D6) [%]	activity at 50 µM (CYP2D6) [%]	IC50 (CYP2D6) [nM]	nicotinamide levels in blood ([1]; blood)	nicotinamide levels in brain ([1]; brain)	nicotinamide levels in heart ([1]; heart)	nicotinamide levels in liver ([1]; liver)
CO[C@H]1CC[C@H](NC(=O)c2nccc(-c3cncn3C)n2)CC1 [Compound 148, N-((1r,4r)-4-methoxycyclohexyl)-4-(1-methyl-1H-imidazol-5-yl)pyrimidine-2-carboxamide]	70	23	≤ 1.5	–	–	–	–	decreased	decreased	decreased	decreased
CC(C)(O)c1ccc(NC(=O)c2nccc(-n3ccnc3)n2)cn1 [Compound 249, N-(6-(2-hydroxypropan-2-yl)pyridin-3-yl)-4-(1H-imidazol-1-yl)pyrimidine-2-carboxamide]	11.9	45.2	–	104	103	87	> 50000	–	–	–	–
CO[C@H]1CC[C@H](NC(=O)c2cc(C3(C)COC3)nc(-c3cncn3C)n2)CC1 [Compound 295, N-((1r,4r)-4-methoxycyclohexyl)-2-(1-methyl-1H-imidazol-5-yl)-6-(3-methyloxetan-3-yl)pyrimidine-4-carboxamide]	18.5	3.6	–	95	79	36	< 50000	–	–	–	–
Cn1cncc1-c1ccnc(C(=O)N[C@H]2CC[C@H](O)CC2)n1 [Compound 256, N-((1r,4r)-4-hydroxycyclohexyl)-4-(1-methyl-1H-imidazol-5-yl)pyrimidine-2-carboxamide]	68.4	22.5	–	89	87	56	> 50000	–	–	–	–
CO[C@H]1CC[C@H](NC(=O)c2cc(C3CCOCC3)nc(-c3cncn3C)n2)CC1 [Compound 199, N-((1r,4r)-4-methoxycyclohexyl)-2-(1-methyl-1H-imidazol-5-yl)-6-(tetrahydro-2H-pyran-4-yl)pyrimidine-4-carboxamide]	15.2	3.1	–	–	–	–	–	–	–	–	–

Further lines, with some results ahead:

IC50 (human CD38) [nM]	IC50 (mouse CD38) [nM]	IC50 fold shift between 30 min pre-incubation plus NADPH and 0 min preincubation [2] [fold]	activity at 3 µM (CYP2D6) [%]	activity at 10 µM (CYP2D6) [%]	activity at 50 µM (CYP2D6) [%]	IC50 (CYP2D6) [nM]	SMILES	nicotinamide levels in blood ([1]; blood)	nicotinamide levels in brain ([1]; brain)	nicotinamide levels in heart ([1]; heart)	nicotinamide levels in liver ([1]; liver)
7	1	–	98	98	64	> 50000	CO[C@H]1CC[C@H](NC(=O)c2cc(C3CCC(F)(F)CC3)nc(-c3cncn3C)n2)CC1 [Compound 289, 6-(4,4-difluorocyclohexyl)-N-((1r,4r)-4-methoxycyclohexyl)-2-(1-methyl-1H-imidazol-5-yl)pyrimidine-4-carboxamide]	–	–	–	–
14.1	32	–	103	86	47	< 50000	Cn1cncc1-c1ccnc(C(=O)Nc2ccc(C(C)(C)O)nc2)n1 [Compound 250, N-(6-(2-hydroxypropan-2-yl)pyridin-3-yl)-4-(1-methyl-1H-imidazol-5-yl)pyrimidine-2-carboxamide]	–	–	–	–
